Patent publication US20260327242A1, “Platform and Scaffold for FAP Targeting Agents” (Erasmus University Medical Center Rotterdam, priority 2022, published 2026)

Tests used:
human FAP (hFAP) = target: T1, human FAP (hFAP) (Homo sapiens, UniProt Q12884); experiment: In vitro inhibition assay on human FAP (Z-GP-AMC substrate); format: biochemical; conditions: 20 μM Z-GP-AMC, 20 nM FAP, pH 7.4, room temperature
T1 sequence (Q12884 26-760 limits assumed): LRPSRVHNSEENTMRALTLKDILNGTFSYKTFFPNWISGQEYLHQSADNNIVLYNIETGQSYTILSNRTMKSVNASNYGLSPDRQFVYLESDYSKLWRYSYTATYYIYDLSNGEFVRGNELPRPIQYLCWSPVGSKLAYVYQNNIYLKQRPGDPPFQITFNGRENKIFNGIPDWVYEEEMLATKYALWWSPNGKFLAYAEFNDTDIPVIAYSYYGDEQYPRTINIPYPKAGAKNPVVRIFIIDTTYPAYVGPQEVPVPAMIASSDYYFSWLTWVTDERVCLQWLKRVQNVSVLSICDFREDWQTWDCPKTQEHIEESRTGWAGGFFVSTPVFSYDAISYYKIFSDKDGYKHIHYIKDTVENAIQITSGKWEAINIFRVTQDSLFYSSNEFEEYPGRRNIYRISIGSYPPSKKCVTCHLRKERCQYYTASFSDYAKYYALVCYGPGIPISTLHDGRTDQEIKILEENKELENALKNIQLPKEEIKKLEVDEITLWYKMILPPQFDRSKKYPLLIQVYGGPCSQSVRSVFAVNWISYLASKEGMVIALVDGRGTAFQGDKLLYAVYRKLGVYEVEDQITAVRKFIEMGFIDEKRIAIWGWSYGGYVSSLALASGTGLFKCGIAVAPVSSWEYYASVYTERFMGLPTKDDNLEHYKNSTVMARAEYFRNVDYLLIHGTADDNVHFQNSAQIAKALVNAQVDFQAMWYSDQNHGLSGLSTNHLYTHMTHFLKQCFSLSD
Method: (§1) Enzymatic activity of human FAP (hFAP) and mouse FAP (mFAP) on the Z-GP-AMC substrate was measured at room temperature on a Hidex microplate reader by monitoring the fluorescence at an excitation wavelength of 360 nm and an emission wavelength of 465 nm. The reaction mixture contained 20 μM substrate, 20 nM FAP, assay buffer (50 mM Tris, 100 mM NaCl, 1 mM EDTA, pH 7.4) and tested compound (serial dilution from 10-6 to 10^−12) in a total volume of 50 μL.

mouse FAP (mFAP) = target: T2, mouse FAP (mFAP) (Mus musculus, UniProt P97321); experiment: In vitro inhibition assay on mouse FAP (Z-GP-AMC substrate); format: biochemical; conditions: 20 μM Z-GP-AMC, 20 nM FAP, pH 7.4, room temperature
T2 sequence (P97321 26-761 limits assumed): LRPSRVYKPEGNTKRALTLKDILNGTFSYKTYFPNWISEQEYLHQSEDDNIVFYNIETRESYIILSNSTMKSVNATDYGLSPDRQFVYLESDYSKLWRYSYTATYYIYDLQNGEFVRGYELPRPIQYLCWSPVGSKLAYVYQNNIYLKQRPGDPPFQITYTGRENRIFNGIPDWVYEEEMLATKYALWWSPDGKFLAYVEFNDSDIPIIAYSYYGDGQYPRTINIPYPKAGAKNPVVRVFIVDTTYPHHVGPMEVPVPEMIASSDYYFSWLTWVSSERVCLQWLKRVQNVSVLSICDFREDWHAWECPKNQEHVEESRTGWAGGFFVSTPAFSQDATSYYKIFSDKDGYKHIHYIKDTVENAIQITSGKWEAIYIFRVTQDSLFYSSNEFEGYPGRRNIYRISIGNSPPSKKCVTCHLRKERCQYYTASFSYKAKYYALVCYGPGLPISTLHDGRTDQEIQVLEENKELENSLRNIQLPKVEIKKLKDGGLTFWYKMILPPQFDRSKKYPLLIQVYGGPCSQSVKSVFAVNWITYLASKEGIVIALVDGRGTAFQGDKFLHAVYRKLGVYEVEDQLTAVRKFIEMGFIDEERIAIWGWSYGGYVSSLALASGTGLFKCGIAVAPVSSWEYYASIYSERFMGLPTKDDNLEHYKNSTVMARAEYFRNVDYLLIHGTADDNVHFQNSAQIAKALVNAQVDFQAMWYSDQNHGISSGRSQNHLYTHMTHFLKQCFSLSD
Method: as §1
Results with FAPI-46 obtained in the same assay is included for comparison.

SMILES | IC50 (human FAP (hFAP)) | IC50 (mouse FAP (mFAP))
N#C[C@@H]1CC(F)(F)CN1C(=O)CNC(=O)c1ccnc2c(OCCCNC(=O)CCSc3nnc(SCCC(=O)NCCCOc4cccc5c(C(=O)NCC(=O)N6CC(F)(F)C[C@H]6C#N)ccnc45)c4c3CCCC(OC(=O)NCCCNC(=O)CCC(C(=O)O)N3CCN(CC(=O)O)CCN(CC(=O)O)CCN(CC(=O)O)CC3)CC4)cccc12 (stereo partly drawn) [eFAP-20, 2,2′,2″-(10-(4-((3-((((1,4-bis((3-((3-((4-((2-((S)-2-cyano-4,4-difluoropyrrolidin-1-yl)-2-oxoethyl)carbamoyl)quinolin-8-yl)oxy)propyl)amino)-3-oxopropyl)thio)-5,6,7,8,9,10-hexahydrocycloocta[d]pyridazin-7-yl)oxy)carbonyl)amino)propyl)amino)-1-carboxy-4-oxobutyl)-1,4,7,10-tetraazacyclododecane-1,4,7-triyl)triacetic acid] | 1.15 nM | 1.11 nM
N#C[C@@H]1CC(F)(F)CN1C(=O)CNC(=O)c1ccnc2c(OCCCNC(=O)CN3CCC(NC(=O)CN4CCN(CC(=O)O)CCN(CC(=O)O)CCN(CC(=O)O)CC4)CC3)cccc12 [eFAP-10, (S)-2,2′,2″-(10-(2-((1-(2-((3-((4-((2-(2-Cyano-4,4-difluoropyrrolidin-1-yl)-2-oxoethyl)carbamoyl)quinolin-8-yl)oxy)propyl)amino)-2-oxoethyl)piperidin-4-yl)amino)-2-oxoethyl)-1,4,7,10-tetraazacyclododecane-1,4,7-triyl)triacetic acid] | 2.4 ± 0.7 nM | 2.4 ± 0.7 nM
CN1/C(=C/C=C/C=C/C2=[N+](CCCCCC(=O)NCCCOc3cccc4c(C(=O)NCC(=O)N5CC(F)(F)C[C@H]5C#N)ccnc34)c3ccc(S(=O)(=O)[O-])cc3C2(C)C)C(C)(C)c2cc(S(=O)(=O)O)ccc21 [eFAP-7, 1-(6-((3-((4-((2-((S)-2-Cyano-4,4-difluoropyrrolidin-1-yl)-2-oxoethyl)carbamoyl)quinolin-8-yl)oxy)propyl)amino)-6-oxohexyl)-3,3-dimethyl-5-sulfo-2-((1E,3E)-5-((E)-1,3,3-trimethyl-5-sulfoindolin-2-ylidene)penta-1,3-dien-1-yl)-3H-indol-1-ium] | – | 2.5 ± 0.8 nM
N#C[C@@H]1CC(F)(F)CN1C(=O)CNC(=O)c1ccnc2c(OCCCNC(=O)COCC(=O)Nc3ccc(CNC(=O)CN4CCN(CC(=O)O)CCN(CC(=O)O)CCN(CC(=O)O)CC4)cc3)cccc12 [eFAP-11, (S)-2,2′,2″-(10-(2-((4-(2-(2-((3-((4-((2-(2-Cyano-4,4-difluoropyrrolidin-1-yl)-2-oxoethyl)carbamoyl)quinolin-8-yl)oxy)propyl)amino)-2-oxoethoxy)acetamido)benzyl)amino)-2-oxoethyl)-1,4,7,10-tetraazacyclododecane-1,4,7-triyl)triacetic acid] | – | 1.5 ± 0.2 nM
N#C[C@@H]1CC(F)(F)CN1C(=O)CNC(=O)c1ccnc2c(OCCCNC(=O)CCCCCSCC(=O)N3CN(C(=O)CSCCCCCC(=O)NCCCOc4cccc5c(C(=O)NCC(=O)N6CC(F)(F)C[C@H]6C#N)ccnc45)CN(C(=O)Cn4nnc5c4CC[C@@H]4[C@H](CC5)[C@@H]4COC(=O)NCCNC(=O)CCC(C(=O)O)N4CCN(CC(=O)O)CCN(CC(=O)O)CCN(CC(=O)O)CC4)C3)cccc12 (stereo partly drawn) [eFAP-35] | 1.7 nM | –
N#C[C@@H]1CC(F)(F)CN1C(=O)CNC(=O)c1ccnc2c(OCCCNC(=O)CCOCCOCCNc3nc(NCCCn4nnc5c4CC[C@H]4[C@@H](CC5)[C@H]4COC(=O)NCCNC(=O)CCC(C(=O)O)N4CCN(CC(=O)O)CCN(CC(=O)O)CCN(CC(=O)O)CC4)nc(NCCOCCOCCC(=O)NCCCOc4cccc5c(C(=O)NCC(=O)N6CC(F)(F)C[C@H]6C#N)ccnc45)n3)cccc12 (stereo partly drawn) [eFAP-37] | – | 0.8 ± 0.1 nM
N#C[C@@H]1CC(F)(F)CN1C(=O)CNC(=O)c1ccnc2c(OCCCNC(=O)CCSCC(=O)N3CN(C(=O)CSCCC(=O)NCCCOc4cccc5c(C(=O)NCC(=O)N6CC(F)(F)C[C@H]6C#N)ccnc45)CN(C(=O)Cn4nnc5c4CC[C@H]4[C@@H](CC5)[C@H]4COC(=O)NCCNC(=O)CCC(C(=O)O)N4CCN(CC(=O)O)CCN(CC(=O)O)CCN(CC(=O)O)CC4)C3)cccc12 (stereo partly drawn) [eFAP-34] | 1.8 nM | –
N#C[C@@H]1CC(F)(F)CN1C(=O)CNC(=O)c1ccnc2c(OCCCNC(=O)CN3CCN(C(=O)CN4CCN(CC(=O)O)CCN(CC(=O)O)CCN(CC(=O)O)CC4)CC3)cccc12 [eFAP-12, (S)-2,2′,2″-(10-(2-(4-(2-((3-((4-((2-(2-Cyano-4,4-difluoropyrrolidin-1-yl)-2-oxoethyl)carbamoyl)quinolin-8-yl)oxy)propyl)amino)-2-oxoethyl)piperazin-1-yl)-2-oxoethyl)-1,4,7,10-tetraazacyclododecane-1,4,7-triyl)triacetic acid] | – | 1.8 ± 0.2 nM

Other lines, results leading:

IC50 (human FAP (hFAP)) | IC50 (mouse FAP (mFAP)) | SMILES
– | 1.3 ± 0.6 nM | N#C[C@@H]1CC(F)(F)CN1C(=O)CNC(=O)c1ccnc2c(OCCCNC(=O)CN3CCN(CCNC(=O)CN4CCN(CC(=O)O)CCN(CC(=O)O)CCN(CC(=O)O)CC4)CC3)cccc12 [eFAP-13, (S)-2,2′,2″-(10-(2-((2-(4-(2-((3-((4-((2-(2-Cyano-4,4-difluoropyrrolidin-1-yl)-2-oxoethyl)carbamoyl)quinolin-8-yl)oxy)propyl)amino)-2-oxoethyl)piperazin-1-yl)ethyl)amino)-2-oxoethyl)-1,4,7,10-tetraazacyclododecane-1,4,7-triyl)triacetic acid]
4.01 ± 0.28 nM | 3.72 ± 0.11 nM | CC1(C)C(/C=C/C2=C(Oc3ccc(S(=O)(=O)O)cc3)C(=C/C=C3/N(CCCCCC(=O)NCC(O)CC(=O)NCCCOc4cccc5c(C(=O)NCC(=O)N6CC(F)(F)C[C@H]6C#N)ccnc45)c4ccc(S(=O)(=O)O)cc4C3(C)C)/CCC2)=[N+](CCCCS(=O)(=O)[O-])c2ccc(S(=O)(=O)O)cc21 (stereo partly drawn) [eFAP-27, 4-(2-((E)-2-((E)-3-(2-((E)-1-(6-((4-((3-((4-((2-((S)-2-cyano-4,4-difluoropyrrolidin-1-yl)-2-oxoethyl)carbamoyl)quinolin-8-yl)oxy)propyl)amino)-2-hydroxy-4-oxobutyl)amino)-6-oxohexyl)-3,3-dimethyl-5-sulfoindolin-2-ylidene)ethylidene)-2-(4-sulfophenoxy)cyclohex-1-en-1-yl)vinyl)-3,3-dimethyl-5-sulfo-3H-indol-1-ium-1-yl)butane-1-sulfonate]
– | 2 ± 0.4 nM | N#C[C@@H]1CC(F)(F)CN1C(=O)CNC(=O)c1ccnc2c(OCCCNC(=O)CC(O)CNC(=O)CC(O)CNC(=S)Nc3ccc4c(c3)C(=O)OC43c4ccc(O)cc4Oc4cc(O)ccc43)cccc12 (stereo partly drawn) [eFAP-23, N-(2-((S)-2-cyano-4,4-difluoropyrrolidin-1-yl)-2-oxoethyl)-8-(3-(4-(4-(3-(3′,6′-dihydroxy-3-oxo-3H-spiro[isobenzofuran-1,9′-xanthen]-5-yl)thioureido)-3-hydroxybutanamido)-3-hydroxybutanamido)propoxy)quinoline-4-carboxamide]
0.35 nM | – | N#C[C@@H]1CC(F)(F)CN1C(=O)CNC(=O)c1ccnc2c(OCCCNC(=O)CCOCCOCCNCC(=O)N3CN(C(=O)CNCCOCCOCCC(=O)NCCCOc4cccc5c(C(=O)NCC(=O)N6CC(F)(F)C[C@H]6C#N)ccnc45)CN(C(=O)Cn4nnc5c4CC[C@H]4[C@@H](CC5)[C@H]4COC(=O)NCCNC(=O)CCC(C(=O)O)N4CCN(CC(=O)O)CCN(CC(=O)O)CCN(CC(=O)O)CC4)C3)cccc12 (stereo partly drawn) [eFAP-36]
